Experiments:
human V2 receptor = target: T1, human V2 receptor (Homo sapiens, UniProt P30518); experiment: Cellular in vitro assay for determining vasopressin receptor activity, V2 receptor cell line (CRE-luciferase); type: cell-based; details: CHO cell line transfected with the human V2 receptor; [Arg8]-vasopressin at EC50 concentration; read-out: IC50 hV2
T1 construct: expressed in transfected cells; host or cells: CHO K1 (ATCC) expressing firefly luciferase under a CRE-responsive promoter
Experimental: (§1) B-1. Cellular In Vitro Assay for Determining Vasopressin Receptor Activity
(§2) The identification of agonists and antagonists of the V1a and V2 vasopressin receptors from humans, rats and dogs as well as the quantification of the activity of the compounds of the invention is carried out using recombinant cell lines. These cell lines originally derive from a hamster's ovary epithelial cell (Chinese Hamster Ovary, CHO K1, ATCC: American Type Culture Collection, Manassas, Va. 20108, USA). The test cell lines constitutively express the human, rat or dog V1a or V2 receptors. In case of the Gαq-coupled V1a receptors, cells are also stably transfected with a modified form of the calcium-sensitive photoproteins aequorin (human and rat V1a) or obelin (dog Via), which, after reconstitution with the cofactor coelenterazine, emit light when there are increases in free calcium concentrations [Rizzuto R, Simpson A W, Brini M, Pozzan T, Nature 358, 325-327 (1992); Illarionov B A, Bondar V S, Illarionova V A, Vysotski E S, Gene 153 (2), 273-274 (1995)]. The resulting vasopressin receptor cells react to stimulation of the recombinantly expressed V1a receptors by intracellular release of calcium ions, which can be quantified by the resulting photoprotein luminescence. The Gs-coupled V2 receptors are stably transfected into cell lines expressing the gene for firefly luciferase under control of a CRE-responsible promoter. Activation of V2 receptors induces the activation of the CRE-responsive promoter via cAMP increase, thereby inducing the expression of firefly luciferase. The light emitted by photoproteins of V1a cell lines as well as the light emitted by firefly luciferase of V2 cell lines corresponds to the activation or inhibition of the respective vasopressin receptor. The bioluminescence of the cell lines is detected using a suitable luminometer [Milligan G, Marshall F, Rees S, Trends in Pharmacological Sciences 17, 235-237 (1996)].
Vasopressin V2 Receptor Cell Lines:
On the day before the assay, the cells are plated out in culture medium (DMEM/F12, 2% FCS, 2 mM glutamine, 10 mM HEPES) in 384-well microtiter plates and kept in a cell incubator (96% humidity, 5% v/v CO2, 37° C.). On the day of the assay, test compounds in various concentrations and the agonist [Arg^8]-vasopressin at EC50 concentration are added together to the wells, and plates are incubated for 3 hours in a cell incubator. Upon addition of the cell lysis reagent Triton™ and the substrate luciferin, luminescence of firefly luciferase is measured in a luminometer.
(§3) Table 1A below lists individual IC50 values for the compounds of the invention (including racemic mixtures as well as separated enantiomers) that were obtained from cell lines transfected with the human V1a or V2 receptor: […]

human V1a receptor = target: T2, human V1a receptor (Homo sapiens, UniProt P37288); experiment: Cellular in vitro assay for determining vasopressin receptor activity, V1a receptor cell line (aequorin luminescence); type: cell-based; details: for IC50: CHO cell line transfected with the human V1a receptor, [Arg8]-vasopressin at EC50 concentration, read-out: IC50 hV1a; for ratio IC50 hV2/hV1a: ratio of the IC50 values at human V2 and human V1a receptor
T2 construct: expressed in transfected cells; host or cells: CHO K1 (ATCC), also stably transfected with a modified aequorin
Experimental: as §1, §2
Vasopressin V1a Receptor Cell Lines:
On the day before the assay, the cells are plated out in culture medium (DMEM/F12, 2% FCS, 2 mM glutamine, 10 mM HEPES, 5 μg/ml coelenterazine) in 384-well microtiter plates and kept in a cell incubator (96% humidity, 5% v/v CO2, 37° C.). On the day of the assay, test compounds in various concentrations are placed for 10 minutes in the wells of the microtiter plate before the agonist [Arg^8]-vasopressin at EC50 concentration is added. The resulting light signal is measured immediately in a luminometer.
as §3

T1 sequence (P30518 whole entry): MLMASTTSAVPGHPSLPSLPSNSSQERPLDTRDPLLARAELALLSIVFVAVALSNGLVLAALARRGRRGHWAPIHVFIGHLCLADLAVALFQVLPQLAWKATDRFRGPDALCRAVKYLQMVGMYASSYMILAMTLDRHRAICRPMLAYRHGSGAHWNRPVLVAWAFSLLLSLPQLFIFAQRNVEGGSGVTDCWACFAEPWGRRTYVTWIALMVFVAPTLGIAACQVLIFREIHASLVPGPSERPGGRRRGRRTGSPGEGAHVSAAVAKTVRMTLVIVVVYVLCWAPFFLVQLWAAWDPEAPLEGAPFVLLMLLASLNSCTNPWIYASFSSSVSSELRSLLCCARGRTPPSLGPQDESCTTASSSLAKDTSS
T2 sequence (P37288 whole entry): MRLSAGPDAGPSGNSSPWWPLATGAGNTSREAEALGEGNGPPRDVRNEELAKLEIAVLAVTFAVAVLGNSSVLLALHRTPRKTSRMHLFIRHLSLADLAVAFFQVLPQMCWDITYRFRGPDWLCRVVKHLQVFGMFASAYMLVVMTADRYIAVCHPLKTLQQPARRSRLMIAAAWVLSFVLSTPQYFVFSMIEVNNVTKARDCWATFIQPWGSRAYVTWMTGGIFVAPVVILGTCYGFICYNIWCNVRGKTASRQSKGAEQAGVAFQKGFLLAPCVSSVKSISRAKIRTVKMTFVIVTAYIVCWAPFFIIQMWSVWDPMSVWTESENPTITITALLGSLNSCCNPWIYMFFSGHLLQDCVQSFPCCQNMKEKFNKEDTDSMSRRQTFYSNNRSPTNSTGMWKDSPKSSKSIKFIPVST

Row | Compound | IC50 (human V2 receptor) [nM] | IC50 (human V1a receptor) [nM] | ratio IC50 hV2/hV1a (human V1a receptor)
1 | CCC(O)c1nc(Cn2nc(-c3ccc(Cl)cc3)n(C[C@H](O)C(F)(F)F)c2=O)nn1-c1ccccc1Cl (mixture of isomers) [Example 4, 5-(4-Chlorophenyl)-2-{[1-(2-chlorophenyl)-5-(1-hydroxypropyl)-1H-1,2,4-triazol-3-yl]methyl}-4-[(2S)-3,3,3-trifluoro-2-hydroxypropyl]-2,4-dihydro-3H-1,2,4-triazol-3-one] | 4.7 | 0.7 | 6.7
2 | CC(C)C(O)c1nc(Cn2nc(-c3ccc(Cl)cc3)n(C[C@H](O)C(F)(F)F)c2=O)nn1-c1ccccc1Cl (mixture of isomers) [Example 7, 5-(4-Chlorophenyl)-2-{[1-(2-chlorophenyl)-5-(1-hydroxy-2-methylpropyl)-1H-1,2,4-triazol-3-yl]methyl}-4-[(2S)-3,3,3-trifluoro-2-hydroxypropyl]-2,4-dihydro-3H-1,2,4-triazol-3-one] | 5.1 | 0.8 | 6.4
3 | O=c1n(Cc2nc(C(O)C(F)(F)F)n(-c3cccc(Cl)c3)n2)nc(-c2ccc(Cl)cc2)n1C[C@H](O)C(F)(F)F (mixture of isomers) [Example 10, 5-(4-Chlorophenyl)-2-{[1-(3-chlorophenyl)-5-(2,2,2-trifluoro-1-hydroxyethyl)-1H-1,2,4-triazol-3-yl]methyl}-4-[(2S)-3,3,3-trifluoro-2-hydroxypropyl]-2,4-dihydro-3H-1,2,4-triazol-3-one] | 2.1 | 13.5 | 0.2
4 | CC(O)(C(=O)O)c1nc(Cn2nc(-c3ccc(Cl)cc3)n(C[C@H](O)C(F)(F)F)c2=O)nn1-c1ccccc1Cl (mixture of isomers) [Example 14, 2-[1-(2-Chlorophenyl)-3-({3-(4-chlorophenyl)-5-oxo-4-[(2S)-3,3,3-trifluoro-2-hydroxypropyl]-4,5-dihydro-1H-1,2,4-triazol-1-yl}methyl)-1H-1,2,4-triazol-5-yl]-2-hydroxypropanoic acid] | 76 | 16.5 | 4.6
5 | CCC(O)c1nc(Cn2nc(-c3ccc(Cl)cc3)n(C[C@H](O)C(F)(F)F)c2=O)nn1-c1ccccc1Cl (single isomer, unassigned) [Example 5] | 4.2 | 1.6 | 2.6
6 | CCC(O)c1nc(Cn2nc(-c3ccc(Cl)cc3)n(C[C@H](O)C(F)(F)F)c2=O)nn1-c1ccccc1Cl (single isomer, unassigned) [Example 6] | 8.4 | 0.7 | 12.0
7 | CC(C)C(O)c1nc(Cn2nc(-c3ccc(Cl)cc3)n(C[C@H](O)C(F)(F)F)c2=O)nn1-c1ccccc1Cl (single isomer, unassigned) [Example 8] | 2.2 | 0.6 | 3.7
8 | CC(C)C(O)c1nc(Cn2nc(-c3ccc(Cl)cc3)n(C[C@H](O)C(F)(F)F)c2=O)nn1-c1ccccc1Cl (single isomer, unassigned) [Example 9] | 25.4 | 0.9 | 28.2
9 | O=c1n(Cc2nc(C(O)C(F)(F)F)n(-c3cccc(Cl)c3)n2)nc(-c2ccc(Cl)cc2)n1C[C@H](O)C(F)(F)F (single isomer, unassigned) [Example 11] | 1.8 | 14.9 | 0.1
10 | O=c1n(Cc2nc(C(O)C(F)(F)F)n(-c3cccc(Cl)c3)n2)nc(-c2ccc(Cl)cc2)n1C[C@H](O)C(F)(F)F (single isomer, unassigned) [Example 12] | 34.8 | 2.2 | 15.8
11 | CC(O)(C(=O)O)c1nc(Cn2nc(-c3ccc(Cl)cc3)n(C[C@H](O)C(F)(F)F)c2=O)nn1-c1ccccc1Cl (single isomer, unassigned) [Example 15] | 26.5 | 3.5 | 7.6
12 | CC(O)(C(=O)O)c1nc(Cn2nc(-c3ccc(Cl)cc3)n(C[C@H](O)C(F)(F)F)c2=O)nn1-c1ccccc1Cl (single isomer, unassigned) [Example 16] | 252 | 5.5 | 45.8
13 | CC(C)(O)c1nc(Cn2nc(-c3ccc(Cl)cc3)n(C[C@H](O)C(F)(F)F)c2=O)nn1-c1cccc(F)c1 [Example 1, 5-(4-Chlorophenyl)-2-{[1-(3-fluorophenyl)-5-(2-hydroxypropan-2-yl)-1H-1,2,4-triazol-3-yl]methyl}-4-[(2S)-3,3,3-trifluoro-2-hydroxypropyl]-2,4-dihydro-3H-1,2,4-triazol-3-one] | 24.9 | 6.6 | 3.8
14 | CC(C)(O)c1nc(Cn2nc(-c3ccc(Cl)cc3)n(C[C@H](O)C(F)(F)F)c2=O)nn1-c1cccc(Cl)c1 [Example 2, 5-(4-Chlorophenyl)-2-{[1-(3-chlorophenyl)-5-(2-hydroxypropan-2-yl)-1H-1,2,4-triazol-3-yl]methyl}-4-[(2S)-3,3,3-trifluoro-2-hydroxypropyl]-2,4-dihydro-3H-1,2,4-triazol-3-one] | 3.3 | 21.9 | 0.2
15 | COc1ccccc1-n1nc(Cn2nc(-c3ccc(Cl)cc3)n(C[C@H](O)C(F)(F)F)c2=O)nc1C(C)(C)O [Example 3, 5-(4-Chlorophenyl)-2-{[5-(2-hydroxypropan-2-yl)-1-(2-methoxyphenyl)-1H-1,2,4-triazol-3-yl]methyl}-4-[(2S)-3,3,3-trifluoro-2-hydroxypropyl]-2,4-dihydro-3H-1,2,4-triazol-3-one] | 1.9 | 0.8 | 2.4
16 | CC(C)(O)c1nc(Cn2nc(-c3ccc(Cl)cc3)n(C[C@H](O)C(F)(F)F)c2=O)nn1-c1ccccc1Cl [Example 13, 5-(4-Chlorophenyl)-2-{[1-(2-chlorophenyl)-5-(2-hydroxypropan-2-yl)-1H-1,2,4-triazol-3-yl]methyl}-4-[(2S)-3,3,3-trifluoro-2-hydroxypropyl]-2,4-dihydro-3H-1,2,4-triazol-3-one] | 6.9 | 2.1 | 3.3
